Measurements from patent US9169217B2, “Arylalkyl esters of 4-amino-6-(substituted phenyl)-picolinates and 6-amino-2-(substituted phenyl)-pyrimidinecarboxylates and their use as selective herbicides for crops” (Dow AgroSciences LLC, priority 2011, dated 2015).
Read-outs that look alike come from different tables or passages of the source.

Assays:
Assay type in all cases: in vivo
[1] = system: Echinochloa crus-galli (L.) P.BEAUV. (barnyardgrass); assay: In-water applied herbicidal activity in transplanted paddy rice (Example 17); conditions: for pest or weed control at 17.5 g/ha / pest or weed control at 35 g/ha: Echinochloa crus-galli, 504 h, read-out: Visual Injury (%) ECHCG; for GR50 / GR80 / GR90: ECHCG, in-water applied, probit analysis; for GR50: 50% growth reduction; for GR80: 80% growth reduction; for GR90: 90% growth reduction; for pest or weed control at 35 g/ha: 35 g ae/ha
How it was run: (§1)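 Ester forms of test compounds, in acetone diluted with aqueous Agri-dex (final 1.25% v/v crop oil concentrate), were injected into the flood water of paddy pots holding weeds or rice at the 2nd–3rd leaf stage in mud (pH ~7.3–7.8). Visual injury versus untreated plants was scored 0–100% after 3 weeks in greenhouse (~29/26 °C). GR50/GR80 were derived by probit analysis.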

[2] = system: Scirpus juncoides ROXB. (Japanese bulrush); assay: as above; conditions: for GR50 / GR80 / GR90: SCPJU, in-water applied, probit analysis; for GR50: 50% growth reduction; for GR80: 80% growth reduction; for GR90: 90% growth reduction
How it was run: as §1

[3] = system: Ipomoea hederacea (Morningglory, ivyleaf); assay: General postemergence herbicidal activity (Example 13); conditions: post-emergent spray, 14 DAA
Protocol: Seeds or nutlets of the desired test plant species were planted in Sun Gro Metro-Mix® 360 planting mixture, which typically has a pH of 6.0 to 6.8 and an organic matter content of about 30 percent, in plastic pots with a surface area of 84.6 square centimeters (cm^2). When required to ensure good germination and healthy plants, a fungicide treatment and/or other chemical or physical treatment was applied. The plants were grown for 7-31 days (d) in a greenhouse with an approximate 15 hour (h) photoperiod which was maintained at about 23-29° C. during the day and 22-28° C. during the night. Nutrients and water were added on a regular basis and supplemental lighting was provided with overhead metal halide 1000-Watt lamps as necessary. The plants were employed for testing when they reached the first or second true leaf stage.
Treatments consisted of esters of compounds 33 and 39 and F and G. Compound F is methyl 6-amino-2-(4-chloro-2-fluoro-3-methoxyphenyl)-5-methoxypyrimidine-4-carboxylate; and compound G is methyl 4-amino-3-chloro-6-(4-chloro-2-fluoro-3-methoxyphenyl)picolinate. A weighed amount, determined by the highest rate to be tested, of each test compound was placed in a 25 mL glass vial and was dissolved in 4 mL of a 97:3 v/v (volume/volume) mixture of acetone and dimethyl sulfoxide (DMSO) to obtain concentrated stock solutions. […] The concentrated stock solutions obtained were diluted with 20 mL of an aqueous mixture containing acetone, water, isopropyl alcohol, DMSO, Atplus 411F crop oil concentrate, and Triton® X-155 surfactant in a 48.5:39:10:1.5:1.0:0.02 v/v ratio to obtain spray solutions containing the highest application rates. Additional application rates were obtained by serial dilution of 12 mL of the high rate solution into a solution containing 2 mL of a 97:3 v/v (volume/volume) mixture of acetone and DMSO and 10 mL of an aqueous mixture containing acetone, water, isopropyl alcohol, DMSO, Atplus 411F crop oil concentrate, and Triton® X-155 surfactant in a 48.5:39:10:1.5:1.0:0.02 v/v ratio to obtain ½×, ¼×, ⅛× and 1/16× rates of the high rate. Compound requirements are based upon a 12 mL application volume at a rate of 187 liters per hectare (L/ha). Formulated compounds were applied to the plant material with an overhead Mandel track sprayer equipped with 8002E nozzles calibrated to deliver 187 L/ha over an application area of 0.503 square meters (m^2) at a spray height of 18 inches (43 cm) above the average plant canopy height. Control plants were sprayed in the same manner with the solvent blank.
The treated plants and control plants were placed in a greenhouse as described above and watered by sub-irrigation to prevent wash-off of the test compounds. After 14 d, the condition of the test plants as compared with that of the untreated plants was determined visually and scored on a scale of 0 to 100 percent where 0 corresponds to no injury and 100 corresponds to complete kill.

[4] = rice cropping systems, in-water applied (paddy), 17.5 g ae/ha, 21 DAA, may represent multiple trials
[5] = rice cropping systems, in-water applied (paddy), 21 DAA, may represent multiple trials
[6] = 35 g ai/ha, 0 = no injury, 100 = complete kill

SMILES: COC(=O)c1nc(-c2ccc(C3CC3)cc2)c(F)c(N)c1Cl [Compound B, methyl 4-amino-3-chloro-6-(4-cyclopropylphenyl)-5-fluoropicolinate]
- pest or weed control at 17.5 g/ha [1, 4]: 10%

SMILES: COc1c(Cl)ccc(-c2nc(C(=O)OCc3ccccc3)c(Cl)c(N)c2F)c1F [Compound 1, benzyl 4-amino-3-chloro-6-(4-chloro-2-fluoro-3-methoxyphenyl)-5-fluoropicolinate]
- GR50 [1]: 10.9 g ae/ha
- GR80 [1]: 21.8 g ae/ha
- GR90 [1]: 31.2 g ae/ha
- pest or weed control at 17.5 g/ha [1]: 87%
- GR50 [2]: <8.75 g ae/ha
- GR80 [2]: 4.4 g ae/ha
- GR90 [2]: 10.8 g ae/ha
- pest or weed control at 17.5 g/ha ([2]; Schoenoplectiella juncoides, 504 h, read-out: Visual Injury (%) SCPJU): 99%

SMILES: Nc1c(F)c(-c2ccc(C3CC3)cc2)nc(C(=O)OCc2ccccc2)c1Cl [Compound 42, benzyl 4-amino-3-chloro-6-(4-cyclopropylphenyl)-5-fluoropicolinate]
- pest or weed control at 17.5 g/ha [1, 4]: 70%

SMILES: COC(=O)c1nc(-c2ccc(Cl)c(OC)c2F)nc(N)c1OC [Compound F, methyl 6-amino-2-(4-chloro-2-fluoro-3-methoxyphenyl)-5-methoxypyrimidine-4-carboxylate, reference compound]
- Visual Injury (%) IPOHE ([3]; 70 g ai/ha): 80%
- pest or weed control at 35 g/ha [1, 5]: 0%
- pest or weed control at 35 g/ha ([2]; Schoenoplectiella juncoides, 504 h, rice cropping systems, in-water applied (paddy), 35 g ae/ha, 21 DAA, may represent multiple trials, read-out: Visual Injury (%) SCPJU): 50%

SMILES: COC(=O)c1nc(-c2ccc(Cl)c(OC)c2F)c(F)c(N)c1Cl [E, methyl 4-amino-3-chloro-6-(4-chloro-2-fluoro-3-methoxyphenyl)-5-fluoropicolinate, reference compound]
- GR50 [1]: 33.2 g ae/ha
- GR80 [1]: 58.5 g ae/ha
- GR90 [1]: 78.7 g ae/ha
- pest or weed control at 17.5 g/ha [1, 4]: 26%
- GR50 [2]: 9.6 g ae/ha
- GR80 [2]: 20.0 g ae/ha
- GR90 [2]: 29.5 g ae/ha
- pest or weed control at 17.5 g/ha ([2]; Schoenoplectiella juncoides, 504 h, rice cropping systems, in-water applied (paddy), 17.5 g ae/ha, 21 DAA, may represent multiple trials, read-out: Visual Injury (%) SCPJU): 75%

SMILES: COC(=O)c1nc(-c2ccc(Cl)c(OC)c2F)cc(N)c1Cl [Compound G, methyl 4-amino-3-chloro-6-(4-chloro-2-fluoro-3-methoxyphenyl)picolinate, reference compound]
- Visual Injury (%) IPOHE ([3]; 8.75 g ai/ha): 40%
- Visual Injury (%) IPOHE ([3]; 17.5 g ai/ha): 50%
- Visual Injury (%) IPOHE [3, 6]: 65%
- pest or weed control at 35 g/ha [1, 5]: 74%

SMILES: COc1c(Cl)ccc(-c2cc(N)c(Cl)c(C(=O)OCc3ccccc3)n2)c1F [Compound 39]
- Visual Injury (%) IPOHE ([3]; 8.75 g ai/ha): 70%
- Visual Injury (%) IPOHE ([3]; 17.5 g ai/ha): 75%
- Visual Injury (%) IPOHE [3, 6]: 80%
- pest or weed control at 35 g/ha [1, 5]: 100%
